From US10793892B2, “Method for detecting the presence of expanded spectrum β-lactamase-producing bacteria in a sample” (INSERM (INSTITUT NATIONAL DE LA SANTE ET DE LA RECHERCHE …, priority 2011, dated 2020)

Columns and labels:
[1] = test system: K. pneumoniae; assay: Susceptibility testing, MIC by Etest; type: cell-based, Klebsiella pneumoniae
Procedure: (§1) Susceptibility testing was performed by determining MIC values using the Etest® (AB bioMérieux; Solna, Sweden) on Mueller-Hinton agar plates at 37° C. and results were recorded according to US guidelines (CLSI), as updated in 2012 (2). The breakpoints for cefotaxime are susceptible (S)≤1 and resistant (R)≥4 μg/ml, and for ceftazidime S≤4 and R≥16 μg/ml.

[2] = test system: E. coli; assay: Susceptibility testing, MIC by Etest; type: cell-based, Escherichia coli
Procedure: as §1

[3] = test system: P. stuartii; assay: ESBL NDP test using cultured strains; type: biochemical, Providencia stuartii; design: key: (+) and (−) referred to color change being, red to yellow or unchanged, respectively; (+) and (−) referred to color change being, red to yellow or unchanged, respectively; conditions: P. stuartii TEM-24, n=1
Procedure: (§2) Strains were isolated on Mueller-Hinton agar (Biorad, Marnes-la-Coquette, France) and incubated at 37° C. for 16 h to 24 h before performing the NDP rapid ESBL test as follows. One calibrated inoculated loop (10 μl) of the tested strain was resuspended in 150 μl of 20 mM Tris-HCl lysis buffer previously distributed in Microbead tubes (Ultraclean Microbial DNA isolation kit Bead Tubes, MO BIO Laboratories, Carlsbad, USA). Mechanical lysis of bacteria was performed by strong agitation of Microbead tubes using a vortex adapter (MO BIO Laboratories) for 30 min at room temperature. This bacterial suspension was centrifuged at 10,000×g at room temperature for 5 min. Thirty μl of the supernatant was mixed in a well of a 96-well tray with 100 μl of a 1 ml solution made of 3 mg of purified cefotaxime sodium salt (Sigma-Aldrich, Saint-Quentin-Fallavier, France) in a pH 7.8 phenol red solution. […]. The phenol red solution was made by taking 2 ml of a concentrated pH 8 phenol solution (made from a mixture of phenol red 0.5% in distilled water) to which 16.6 ml of distilled water was added. The pH value was then adjusted to a 7.8 value by adding drops of a 1 N NaOH solution. Mixture of the phenol red solution and the enzymatic suspension being tested was incubated at 37° C. for 30 min. Similarly, culture extracts were analyzed in wells containing cefotaxime and tazobactam (4 mg/ml). […]

[4] = test system: S. marcescens; assay: Susceptibility testing, MIC by Etest; type: cell-based, Serratia marcescens; conditions: S. marcescens Wild-type, chromosome-encoded cephalosporinase, n=2
Procedure: as §1

[5] = test system: S. enterica; assay: Susceptibility testing, MIC by Etest; type: cell-based, Salmonella enterica
Procedure: as §1

[6] = test system: P. mirabilis; assay: ESBL NDP test using spiked blood cultures; type: biochemical, Proteus mirabilis; design: key: (+) and (−) referred to color change being, red to yellow or unchanged, respectively; (+) and (−) referred to color change being, red to yellow or unchanged, respectively
Procedure: (§3) Strains were isolated on Mueller-Hinton agar (Biorad, Marnes-la-Coquette, France) and incubated at 37° C. for 16 h to 24 h before performing the NDP rapid ESBL test as follows. One calibrated inoculated loop (10 μl) of the tested strain was resuspended in 150 μl of 20 mM Tris-HCl lysis buffer previously distributed in Microbead tubes (Ultraclean Microbial DNA isolation kit Bead Tubes, MO BIO Laboratories, Carlsbad, USA). Mechanical lysis of bacteria was performed by strong agitation of Microbead tubes using a vortex adapter (MO BIO Laboratories) for 30 min at room temperature. This bacterial suspension was centrifuged at 10,000×g at room temperature for 5 min. Thirty μl of the supernatant was mixed in a well of a 96-well tray with 100 μl of a 1 ml solution made of 3 mg of purified cefotaxime sodium salt (Sigma-Aldrich, Saint-Quentin-Fallavier, France) in a pH 7.8 phenol red solution. […]. The phenol red solution was made by taking 2 ml of a concentrated pH 8 phenol solution (made from a mixture of phenol red 0.5% in distilled water) to which 16.6 ml of distilled water was added. The pH value was then adjusted to a 7.8 value by adding drops of a 1 N NaOH solution. Mixture of the phenol red solution and the enzymatic suspension being tested was incubated at 37° C. for 30 min. Similarly, culture extracts were analyzed in wells containing cefotaxime and tazobactam (4 mg/ml). Other concentrations of tazobactam and other ß-lactamase inhibitors were tested giving less clear results (data not shown). […] This definition of test positivity will be applied throughout the study.
Rapid detection of ESBL producers was attempted from spiked blood cultures which positivity was assessed using the BactAlert blood culture system (bioMérieux). […] This inoculum was reached after 24-48 h incubation in this BactAlert system. Strains were inoculated into blood culture system in presence of 10 ml of sterile blood. […] Spiked blood cultures were made of 1×10^3 CFU of each strain and incubated 24 to 48 h before a positivity of the blood culture was detected by the BactAlert system. […]

[7] = test system: S. enterica; assay: ESBL NDP test using cultured strains; type: biochemical, Salmonella enterica; design: key: (+) and (−) referred to color change being, red to yellow or unchanged, respectively; (+) and (−) referred to color change being, red to yellow or unchanged, respectively
Procedure: as §2

[8] = test system: M. morganii; assay: ESBL NDP test using cultured strains; type: biochemical, Morganella morganii; design: key: (+) and (−) referred to color change being, red to yellow or unchanged, respectively; (+) and (−) referred to color change being, red to yellow or unchanged, respectively
Procedure: as §3

[9] = test system: P. mirabilis; assay: ESBL NDP test using cultured strains; type: biochemical, Proteus mirabilis; design: key: (+) and (−) referred to color change being, red to yellow or unchanged, respectively; (+) and (−) referred to color change being, red to yellow or unchanged, respectively
Procedure: as §3

[10] = S. enterica Wild-type, no resistance, n=1

CO/N=C(\C(=O)N[C@@H]1C(=O)N2C(C(=O)O)=C(COC(C)=O)CS[C@H]12)c1csc(N)n1 [CTX, cefotaxime]
1 µg/mL: MICs range ([1]; K. pneumoniae SHV-2a, n=2) | MICs range ([1]; K. pneumoniae SHV-12, n=1)
>16 µg/mL: MICs range ([1]; K. pneumoniae CTX-M-3, n=1) | MICs range ([1]; K. pneumoniae CTX-M-14, n=3) | MICs range ([1]; K. pneumoniae CTX-M-15, n=28) | MICs range ([1]; K. pneumoniae DHA-1, n=1) | MICs range ([1]; K. pneumoniae DHA-2, n=1) | MICs range ([1]; K. pneumoniae SHV-5, n=2) | MICs range ([1]; K. pneumoniae SHV-28, n=3) | MICs range ([1]; K. pneumoniae TEM-52, n=2) | MICs range ([2]; E. coli ACC-1, n=1, first line) | MICs range ([2]; E. coli ACC-1, n=1, second line) | MICs range ([2]; E. coli CMY-2, n=1) | MICs range ([2]; E. coli CTX-M-1, n=16) | MICs range ([2]; E. coli CTX-M-2, n=3) | MICs range ([2]; E. coli CTX-M-3, n=1) | MICs range ([2]; E. coli CTX-M-9, n=1) | MICs range ([2]; E. coli CTX-M-14, n=15) | MICs range ([2]; E. coli CTX-M-27, n=6) | MICs range ([2]; E. coli CTX-M-28, n=1) | MICs range ([2]; E. coli CTX-M-32, n=1) | MICs range ([2]; E. coli CTX-M-97, n=1) | MICs range ([2]; E. coli SHV-12, n=6) | MICs range ([5]; S. enterica CTX-M-1, n=1)
0.02 to 0.04 µg/mL: MICs range ([2]; E. coli Wild-type, no resistance, n=5)
+: ESBL NDP Test from: Blood culture ([6]; P. mirabilis 09.128, TEM-52) | ESBL NDP Test from: Blood culture ([6]; P. mirabilis 09.177, TEM-21) | Test (color change) ([7]; S. enterica CTX-M-1, n=1) | ESBL NDP Test from: Colonies ([9]; P. mirabilis 09.128, TEM-52) | Test (color change) ([9]; P. mirabilis CTX-M-14, n=1) | Test (color change) ([9]; P. mirabilis CTX-M-15, n=1) | Test (color change) ([9]; P. mirabilis PER-1, n=1) | Test (color change) ([9]; P. mirabilis TEM-21, n=1) | Test (color change) ([9]; P. mirabilis TEM-52, n=1)
2 to 8 µg/mL: MICs range ([1]; K. pneumoniae SHV-12, n=2)
−: Test (color change) [3] | ESBL NDP Test from: Blood culture ([6]; P. mirabilis BIK, ACC-1) | Test (color change) [7, 10] | ESBL NDP Test from: Colonies ([8]; M. morganii BG 1106 5902, Wild-type) | ESBL NDP Test from: Colonies ([8]; M. morganii BG 1117 0617, Wild-type) | Test (color change) ([8]; M. morganii Wild-type, chromosome-encoded cephalosporinase, n=2) | ESBL NDP Test from: Colonies ([9]; P. mirabilis 09.177, TEM-21) | Test (color change) ([9]; P. mirabilis ACC-1, n=1) | ESBL NDP Test from: Colonies ([9]; P. mirabilis BIK, ACC-1)
8 µg/mL: MICs range ([2]; E. coli VEB-1, n=1)
0.05 µg/mL: MICs range [5, 10]
0.19 to 0.75 µg/mL: MICs range [4]
0.19 µg/mL: MICs range ([2]; E. coli TEM-133, n=1)
12 µg/mL: MICs range ([2]; E. coli SHV-3, n=1)
0.02 to 0.03 µg/mL: MICs range ([1]; K. pneumoniae Wild-type penicillinase, n=2)
0.75 µg/mL: MICs range ([2]; E. coli SHV-12, n=1)
0.5 µg/mL: MICs range ([1]; K. pneumoniae GES-1, n=1) | MICs range ([2]; E. coli TEM-12, n=1)
0.25 µg/mL: MICs range ([2]; E. coli DHA-1, n=1) | MICs range ([2]; E. coli TEM-29, n=2)
0.03 to 0.09 µg/mL: MICs range ([2]; E. coli TEM-1 penicillinase, n=5)
